assay: Human HepG2 cell viability assay in 384 well format; format: toxicity, cell-based; design: dose 125 nL, time 70.5 hour; concentration not given beside the values; conditions: HepG2 cells, read-out: Inhibition

| Structure (SMILES) | cytotoxicity at 70.5 h [%] |
| --- | --- |
| Cc1cnn(C2CN(CC(O)c3ccc(F)cc3)C2)c1 (stereo not drawn) | -5.26 |
| COc1cccc(S(=O)(=O)CCN2CCCCC2)c1 | -15.7 |
| O=C(NCCc1csc(N2CCCC2)n1)N(C1CCCC1)C1CC1 | -2.69 |
| Cc1ccc2ncnc(N3CCOCC3c3c(C)nn(C)c3C)c2c1 (stereo not drawn) | -11.7 |
| CCN(CC1CN(Cc2ncc[nH]2)CCO1)c1cccnn1 (stereo not drawn) | -6.7 |
| O=C(C1CC(=O)N(c2ccccc2Br)C1)N1CCC2(CC1)OCCO2 (stereo not drawn) | -6.47 |
| CCOC1CCN(C(=O)c2c(Cl)c3ccccc3n2C)CC1 | -7.26 |
| Cc1ccsc1CNC(=O)NC1CCCc2c1cnn2CCO (stereo not drawn) | -6.7 |
| CCS(=O)(=O)c1ccc(N2CCC(NC(=O)c3cnn(C)c3)CC2)cc1 | -4.33 |
| O=C(NCC(F)(F)F)NC1CCCc2c1cnn2CCO (stereo not drawn) | -8.96 |
| CC(C)Oc1ccc(CSc2nnc(CN3CCCC3=O)o2)cc1 | -7.62 |
| CC(O)CN1CCN(C(=O)c2cnn(-c3ccccc3F)c2)CC1 (stereo not drawn) | -6.92 |
| Cc1nn(CCO)c(C)c1CNC1CCC(C)(C)c2ccccc21 (stereo not drawn) | -5.72 |
| CCCC(NC(=O)c1cc(C)n(C2CC2)c1C)c1nnn[nH]1 (stereo not drawn) | -0.607 |
| c1csc(COC[C@H]2CCC[C@]23CN(Cc2ccoc2)CCO3)n1 | -9.63 |
| COCCO[C@H]1CCN(C(=O)c2ccsc2)[C@H]1Cc1cnn(C)c1 | -11.9 |
| O=C(CC1CC1)N1CCC2(COCc3cnc(N4CCOCC4)nc32)C1 (stereo not drawn) | -6.88 |
| O=C(c1cccs1)N1CCC2(CC1)CN(c1ccsc1)C(=O)CO2 | -8.69 |
| O=C(CCO)N1CC[C@@H]2CN(C(=O)c3ccco3)CCO[C@@H]2C1 | -4.78 |
| CN(C)[C@@H]1CCN(C(=O)c2ccccn2)[C@H]1Cc1cnn(C)c1 | -5.7 |
| c1cc(CN2CC[C@H]3O[C@@H](COCC4CCOCC4)CC[C@H]32)ccn1 | 23.2 |
| Cn1nnc2c1CCN(S(C)(=O)=O)C2COCc1ccccc1 (stereo not drawn) | 13.6 |

| Structure (SMILES) | cytotoxicity at 70.5 h [%] |
| --- | --- |
| O=C(c1ccco1)N1CC[C@@H]2[C@H]1CCC(=O)N2c1ccccc1 | -15.1 |
| Cn1cccc1C(=O)NCc1cn2c(n1)CN(c1ncccn1)CC2 | -12.8 |
| CCS(=O)(=O)N1CCC2(CN(Cc3ccc(C)o3)C2)C1 | -13.4 |
| CCS(=O)(=O)N1CCC2(CCN(Cc3ccc(C)o3)C2)C1 (stereo not drawn) | 13 |
| Cn1cccc1C(=O)NCc1cn2c(n1)CN(S(=O)(=O)C1CC1)CC2 | -10.3 |
| COCC1CN(C(=O)c2ccco2)Cc2nccn2C1 (stereo not drawn) | -9.63 |
| COCCC(=O)N1CCN(CC2CC2)c2ncccc2C1 | 8.88 |
| COCCC(=O)N1CCc2nc(N3CCOCC3)nc(NC(C)C)c2C1 | -17 |
| O=C(C1CCOCC1)N1CCN(CC2CC2)c2ncccc2C1 | -14.2 |
| COCCC(=O)N1CCC2(CN(Cc3cccc(Cl)c3)C2)C1 | 33.3 |
| O=c1ccc2c(n1CC1CC1)CCC(NS(=O)(=O)C1CC1)C2 (stereo not drawn) | 21.2 |
| O=C(N1CCCC1)N1CCCC2(CCN(c3ccsc3)C2=O)C1 (stereo not drawn) | -7.85 |
| O=C(NC[C@]12COC[C@H]1CN(Cc1cccc(F)c1)C2)c1ccco1 | -12.4 |
| Cc1ccc2c(n1)N(CCN(C)C)CCN(C(=O)c1ccsc1)C2 | -5.53 |
| COC(=O)CCC(=O)N1CCC2(CN(Cc3cccc(Cl)c3)C2)C1 | 6.9 |
| O=C(Cc1ccc(F)cc1)N1CCn2c(Cn3cncn3)cnc2C1 | -1.65 |
| CCC(O)C1CCN(C(=O)Nc2nc(-c3ccccc3)ns2)CC1 (stereo not drawn) | 13.7 |
| Cc1ccsc1CCNC(C)C(=O)NC1CCCC1 (stereo not drawn) | -10.7 |
| O=C1CCCN1CCc1noc(-c2ccsc2)n1 | -7.91 |
| CN1CCCC2(CCN(c3cccc(C(F)(F)F)n3)C2)C1=O (stereo not drawn) | -6.46 |
| CC(C)C(=O)N1CCN(C(=O)c2cc(Cl)no2)[C@H]2CS(=O)(=O)C[C@H]21 | -2.12 |
| CC(C)=CCN1CCN(C(=O)c2cc(C)n[nH]2)[C@H]2CS(=O)(=O)C[C@H]21 | 0.726 |

| Structure (SMILES) | cytotoxicity at 70.5 h [%] |
| --- | --- |
| O=C(CCc1cc2n(n1)CCCNC2)NCCCSC1CCCCC1 | -8.87 |
| O=C(c1cnc(C2CC2)nc1)N1CCC(N2CCC(O)CC2)CC1 | 14.2 |
| O=C(CN1CCC(c2ccccc2)CC1)NCc1cc2n(n1)CCNC2 | -10.6 |
| CSc1cccc(CN2CCC(CCC(=O)Nc3ccccc3)CC2)c1 | -8.78 |
| Cn1ccc(NC(=O)CN2C[C@H]3CC[C@@H]2CN(Cc2ccccn2)C3)n1 | -3.7 |
| CCCc1nnc2sc(C3CCN(C4CCN(C)CC4)CC3)nn12 | -12.7 |
| CN(C)C(C(=O)NCCSc1ncn[nH]1)c1cccc(F)c1 (stereo not drawn) | 28.8 |
| CN1CSC[C@H]1C(=O)N1CCN(Cc2cccc(F)c2)CC1 | 8.84 |
| CN(C)C(=O)N1C[C@@H]2CC[C@H](C1)N(C(=O)c1c(Cl)cccc1Cl)C2 | -13.7 |
| CC(=O)NCC(=O)N1CCCC2(CCC(=O)N(CCc3c[nH]cn3)C2)C1 (stereo not drawn) | 10.1 |
| CC1(C)[C@H]2CC=C(CN3CCCn4nc(CCC(=O)O)cc4C3)[C@@H]1C2 | -14.3 |
| Cc1ncsc1CCN(C)C(=O)C(c1cccnc1)N1CCOCC1 (stereo not drawn) | -5.13 |
| CCCN1CCN(Cc2nc3ccccc3[nH]2)[C@H]2CS(=O)(=O)C[C@H]21 | -3.06 |
| CCn1ccnc1CN(C)Cc1nc(Cc2ccccc2Cl)no1 | 0.631 |
| Cn1c(Cn2ccnc2)nnc1C1CCN(C(=O)c2cccnc2)CC1 | -10.4 |
| CCC(CO)N(Cc1ccccn1)Cc1c[nH]nc1-c1ccc(F)cc1 (stereo not drawn) | -6.02 |
| O=C(Cn1cccn1)N1CCC(Cn2cc(-c3ccsc3)nn2)CC1 | -10.6 |
| CCc1nc(CCn2ccnc2-c2nccn2C)no1 | -7.8 |
| OCC1CCCN(c2ncnc3c2Cc2ccccc2OC3)C1 (stereo not drawn) | -5.22 |
| Cc1ncsc1CCC(=O)NC1CCN(c2ncccc2C#N)CC1 | -13.1 |
| COCc1noc(-c2ccc(N3CCCCC3COC)nc2)n1 (stereo not drawn) | -11.8 |
| FC(F)(F)c1cccc(OC2CCN(Cc3ccccn3)CC2)c1 | -0.484 |

| Structure (SMILES) | cytotoxicity at 70.5 h [%] |
| --- | --- |
| CCc1ncc(-c2cn(CCSc3ncn[nH]3)nn2)cn1 | -11.1 |
| COc1ccc(NC(=O)c2cccc(CN3CCCC3C)c2)cc1OC (stereo not drawn) | -2.34 |
| COc1ccccc1C(=O)C1CCCN(c2cc(C#N)ccn2)C1 (stereo not drawn) | -1.63 |
| COCc1noc(-c2ccc(N3CCCC3c3nccs3)nc2)n1 (stereo not drawn) | 12 |
| CCCOCC(=O)N1CCC2(CC1)c1nc[nH]c1CCN2S(C)(=O)=O | -5.48 |
| O=C(CN1CCN(c2ncnc3c2CCNCC3)CC1)N1CCCCC1 | -5.29 |
| Cc1cc(-c2ccc(C(C)N3CCOCC3)cc2)cnc1N (stereo not drawn) | -4.56 |
| CCc1n[nH]c(SCC(=O)N2CCc3[nH]nc(C4CCC4)c3C2)n1 | -0.161 |
| COc1ccc(CCC2CCCN(C(=O)CCc3cc(O)no3)C2)cc1 (stereo not drawn) | -4.3 |
| CC(=O)N[C@@H]1Cc2ccccc2[C@H]1Nc1cc(C2CC2)ncn1 | 7.02 |
| CN(C)C(=O)CN1CCC2(COCc3cnc(N4CCOCC4)nc32)C1 (stereo not drawn) | 19.8 |
| CN1C(=O)C[C@H]2[C@H]1CCN2Cc1cccc(C#N)c1 | -11.7 |
| CN(C)CCNC(=O)c1cc(-c2cnc(N3CCOCC3)nc2)cn1C | -8.38 |
| Cc1noc(C)c1CN1C[C@@H]2COC[C@H](C(=O)N3CCOCC3)[C@@H]2C1 | -8.43 |
| c1csc(CN2CCn3c(Cn4cncn4)cnc3C2)c1 | 27.5 |
| Cn1nnc2c1CCN(CC1CC1)C2COCC1CC1 (stereo not drawn) | -12.8 |
| Cc1ccc(CN2CCc3c(nnn3C)C2COCc2ccccc2)s1 (stereo not drawn) | -7.66 |
| Cc1occc1C(=O)N1Cc2nccn2CC(CN(C)C)C1 (stereo not drawn) | -8.13 |
| O=C(c1ccco1)N1CCOC2(COCCN(c3ncccn3)C2)C1 (stereo not drawn) | -14.8 |
| COc1ccc(CN2CCCn3nnc(COCC4CC4)c3C2)cc1 | -12.2 |
| Fc1ccc(CN2CCCn3nnc(COCC4CC4)c3C2)cc1 | 16.6 |
| COCCN1CCN(C(=O)N2CCCC2)Cc2ccc(C)nc21 | 24.9 |

| Structure (SMILES) | cytotoxicity at 70.5 h [%] |
| --- | --- |
| COCCC(=O)N1CCC2(CCN(Cc3cccc(F)c3)CC2)CC1 | -5.26 |
| COCCC(=O)N1CCC2(CCN(Cc3ccc(C)cc3)CC2)C1 | -7.89 |
| O=C(NC1CCC1)[C@@H]1C[C@@H]2CCN(CCc3ccccc3)C[C@H]2O1 | -8.97 |
| O=C1N(c2ccsc2)CCC12CCCN(CC1CC1)C2 (stereo not drawn) | -4.66 |
| CNC(=O)[C@H]1C[C@@H]2CCN(CCc3ccccc3)C[C@@H]2O1 | -4.11 |
| O=C(NC[C@]12COC[C@H]1CN(CC1CCOCC1)C2)c1ccco1 | -3.33 |
| Cc1ccsc1CN1C[C@@H]2COC[C@]2(CNC(=O)c2ccco2)C1 | -6.31 |
| COC[C@H]1CC[C@@H]2[C@@H](CCN2Cc2ccccn2)O1 | 22.1 |
| O=C(c1cnc2n1CCN(Cc1ccccc1)C2)N1CCCC1 | -9.37 |
| N#Cc1cccc(CN2CC[C@@H]3[C@@H]2CC(=O)N3CCN2CCCC2)c1 | -9.81 |
| O=C(c1cccnc1)N1CCN2C[C@H](OCc3ccccc3)C[C@H]2C1 | -5.95 |
| O=C(c1ccnnc1)N1CCN2C[C@H](OCc3cccnc3)C[C@H]2C1 | -8.22 |
| CN(C)CCN1CCc2c(nnn2C)C1COCc1ccccc1 (stereo not drawn) | 10.5 |
| CC(=O)NCC(=O)N1CCN(CCN(C)C)c2ncccc2C1 | -14.2 |
| CN(C)C(=O)CN1CCC2(CCCN(Cc3cccnc3)C2)C1=O (stereo not drawn) | -12 |
| c1cncc(COCC2CC[C@H]3[C@H](CCN3CC3CCOCC3)O2)c1 (stereo partly drawn) | 24.3 |
| O=C(N1CCCC1)N1CCC2(CC1)COCCN(Cc1cccnc1)C2 | -4.16 |
| O=C(c1ccsc1)N1CCC2(CC1)COCCN(Cc1ccncc1)C2 | -7.46 |
| O=C(NC[C@]12COC[C@H]1CN(Cc1ccncc1)C2)c1ccno1 | -7.21 |
| Cc1cccc(CN2CCOC3(COCCN(CCN(C)C)C3)C2)n1 (stereo not drawn) | -3.04 |
